The values that follow come from patent US12649722B2, “Herbicidal cinnoline derivatives” (SYNGENTA CROP PROTECTION AG, priority 2020, dated 2026).

Format in all cases: in vivo
Test [1] concerns Solarium nigrum (SOLNI). The experiment in a line: Pre-emergence Test, SOLNI. The following applies: 1000 g/ha, evaluated after 13 days.
The test system of test [2] is Amaranthus retoflexus (AMARE). The experiment in a line: Pre-emergence Test, AMARE. The note with it: 1000 g/ha, evaluated after 13 days.
In test [3] the test system is Ipornoea hederacea (IPOHE). The experiment in a line: Pre-emergence Test, IPOHE. The note with it: 1000 g/ha, evaluated after 13 days.
For test [4], the system named is Echinochloa crus-galli (ECHCG). The experiment in a line: Pre-emergence Test, ECHCG. The following applies: 1000 g/ha, evaluated after 13 days.
The subject of test [5] is Lolium perenne (LOLPE). The experiment in a line: Pre-emergence Test, LOLPE. The note with it: 1000 g/ha, evaluated after 13 days.
Test [6] deals with Setaria faberi (SETFA). The experiment in a line: Pre-emergence Test, SETFA. The note with it: 1000 g/ha, evaluated after 13 days.
Test [7] concerns ZEAMX. In words: Pre-emergence Test, ZEAMX. The note with it: 1000 g/ha, evaluated after 13 days.
In test [8] the test system is ABUTH. In words: Pre-emergence Test, ABUTH. The following applies: 1000 g/ha, evaluated after 13 days.
Test [9] has as its system Solarium nigrum (SOLNI). In words: Post-emergence Test, SOLNI. The note with it: sprayed after 8 days cultivation, 1000 g/ha, evaluated after 13 days. The procedure:
(§1) Seeds of a variety of test species are sown in standard soil in pots (Amaranthus retoflexus (AMARE), Solarium nigrum (SOLNI), Setaria faberi (SETFA), Lolium perenne (LOLPE), Echinochloa crus-galli (ECHCG), Ipornoea hederacea (IPOHE)). After 8 days cultivation under controlled conditions in a glasshouse (at 24° C./16° C., day/night; 14 hours light; 65% humidity), the plants are sprayed with an aqueous spray solution derived from the formulation of the technical active ingredient in acetone/water (50:50) solution containing 0.5% Tween 20 (polyoxyethylene sorbitan monolaurate, CAS RN 9005-64-5). Compounds are applied at 1000 g/ha unless otherwise stated. The test plants are then grown in a glasshouse under controlled conditions in a glasshouse (at 24° C./16° C., day/night; 14 hours light; 65% humidity) and watered twice daily. After 13 days the test is evaluated for the percentage damage caused to the plant. The biological activities are shown in the following table on a five-point scale (5=81-100%; 4=61-80%; 3=41-60%; 2=21-40%; 1=10-20%; 0=0%; −=not tested).

The subject of test [10] is Amaranthus retoflexus (AMARE). In words: Post-emergence Test, AMARE. The note with it: sprayed after 8 days cultivation, 1000 g/ha, evaluated after 13 days. The gist of the method: (§2)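 Pots sown with AMARE, SOLNI, SETFA, LOLPE, ECHCG, IPOHE, kept in glasshouse (24/16 °C, 14 h light, 65% humidity), sprayed at 1000 g/ha unless stated, in acetone/water 50:50 with 0.5% Tween 20. Damage scored after 13 days on a 0–5 scale (5=81–100%, 0=0%).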

The subject of test [11] is Ipornoea hederacea (IPOHE). The experiment in a line: Post-emergence Test, IPOHE. The note with it: sprayed after 8 days cultivation, 1000 g/ha, evaluated after 13 days. The method, boiled down: as §2
The subject of test [12] is Echinochloa crus-galli (ECHCG). In words: Post-emergence Test, ECHCG. The note with it: sprayed after 8 days cultivation, 1000 g/ha, evaluated after 13 days. The method, boiled down:
as §2

Test [13] deals with Lolium perenne (LOLPE). In words: Post-emergence Test, LOLPE. The note with it: sprayed after 8 days cultivation, 1000 g/ha, evaluated after 13 days. How it is done: as §1
Test [14] has as its system Setaria faberi (SETFA). In words: Post-emergence Test, SETFA. The following applies: sprayed after 8 days cultivation, 1000 g/ha, evaluated after 13 days. The gist of the method:
as §2

Test [15] concerns ZEAMX. The experiment in a line: Post-emergence Test, ZEAMX. The following applies: sprayed after 8 days cultivation, 1000 g/ha, evaluated after 13 days.
The test system of test [16] is ABUTH. In words: Post-emergence Test, ABUTH. The note with it: sprayed after 8 days cultivation, 1000 g/ha, evaluated after 13 days.

As to `CO/N=C(\C)c1cccc2c1c(=O)c(C(=O)O)nn2-c1ccc(OC(F)(F)F)cc1` [Compound P2, 5-[(E)-N-methoxy-C-methyl-carbonimidoyl]-4-oxo-1-[4-(trifluoromethoxy)phenyl] cinnoline-3-carboxylic acid], the “percentage damage caused to the plant, SOLNI” value in test [1] and in test [9] was 2 (2=21-40%) in each case. In addition, the “percentage damage caused to the plant, AMARE” value in [2] is 0 (0=0%); in test [10] it was 1 (1=10-20%). For the same molecule, the “percentage damage caused to the plant, IPOHE” value in test [3] is given as 2 (2=21-40%); in test [11], 3 (3=41-60%). The entries for the “percentage damage caused to the plant, ECHCG” value in [4] and in test [12] were 5 (5=81-100%) and 4 (4=61-80%), respectively. Moreover, the “percentage damage caused to the plant, LOLPE” value is 4 (4=61-80%) in test [5] and 3 (3=41-60%) in test [13]. In addition, the results for the “percentage damage caused to the plant, SETFA” value in test [6] and in [14] were 5 (5=81-100%) and 4 (4=61-80%), respectively. The “percentage damage caused to the plant, ZEAMX” value in [7] is given as 4 (4=61-80%); in test [15], 3 (3=41-60%). In addition, the “percentage damage caused to the plant, ABUTH” value in test [8] is on record as 3 (3=41-60%); in [16], 4 (4=61-80%).
Turning to `C=C(OCC)c1cccc2c1c(=O)c(C(=O)OC)nn2-c1ccc(OC(F)(F)F)cc1` [Compound P3, methyl 5-(1-ethoxyvinyl)-4-oxo-1-[4-(trifluoromethoxy)phenyl] cinnoline-3-carboxylate], the results for the “percentage damage caused to the plant, SOLNI” value in test [1] and in [9] were 2 (2=21-40%) and 4 (4=61-80%), respectively. The entries for the “percentage damage caused to the plant, AMARE” value in test [2] and in test [10] were 0 (0=0%) and 1 (1=10-20%), respectively. For the same molecule, the “percentage damage caused to the plant, IPOHE” value in [3] is recorded as 2 (2=21-40%); in [11] it was 3 (3=41-60%). The “percentage damage caused to the plant, ECHCG” value in test [4] and in test [12] was 4 (4=61-80%) in each case. The “percentage damage caused to the plant, LOLPE” value in [5] and in [13] was 4 (4=61-80%) in each case. Moreover, the “percentage damage caused to the plant, SETFA” value in test [6] is on record as 5 (5=81-100%); in test [14] it was 4 (4=61-80%). Moreover, the “percentage damage caused to the plant, ZEAMX” value in [7] was 4 (4=61-80%); in test [15] it was 3 (3=41-60%). For the same molecule, the “percentage damage caused to the plant, ABUTH” value in test [8] and in test [16] was 3 (3=41-60%) throughout.
Turning to `N#Cc1cccc2c1c(=O)c(C(=O)O)nn2-c1ccc(OC(F)(F)F)cc1` [Compound P8, 5-cyano-4-oxo-1-[4-(trifluoromethoxy)phenyl] cinnoline-3-carboxylic acid], the “percentage damage caused to the plant, SOLNI” value is given as 1 (1=10-20%) in [1] and 3 (3=41-60%) in [9]. Further, the “percentage damage caused to the plant, AMARE” value in test [2] was 2 (2=21-40%); in test [10], 4 (4=61-80%). Also, the “percentage damage caused to the plant, IPOHE” value was 1 (1=10-20%) in test [3] and 4 (4=61-80%) in test [11]. Also, the “percentage damage caused to the plant, ECHCG” value is 5 (5=81-100%) in test [4] and 4 (4=61-80%) in [12]. For the same molecule, the “percentage damage caused to the plant, LOLPE” value in [5] and in [13] was 4 (4=61-80%) in each case. The entries for the “percentage damage caused to the plant, SETFA” value in [6] and in test [14] were 5 (5=81-100%) and 4 (4=61-80%), respectively. Moreover, the “percentage damage caused to the plant, ZEAMX” value in test [7] is recorded as 0 (0=0%); in [15] it was 2 (2=21-40%). Further, the “percentage damage caused to the plant, ABUTH” value in [8] and in test [16] was 1 (1=10-20%) each time.
With `COC(=O)c1nn(-c2ccc(OC(F)(F)F)cc2)c2cccc(C(C)=O)c2c1=O` [Compound P9, methyl 5-acetyl-4-oxo-1-[4-(trifluoromethoxy)phenyl] cinnoline-3-carboxylate], the entries for the “percentage damage caused to the plant, SOLNI” value in test [1] and in test [9] were 3 (3=41-60%) and 4 (4=61-80%), respectively. In addition, the “percentage damage caused to the plant, AMARE” value in test [2] and in test [10] was 1 (1=10-20%) each time. The results for the “percentage damage caused to the plant, IPOHE” value in [3] and in test [11] were 3 (3=41-60%) and 2 (2=21-40%), respectively. The “percentage damage caused to the plant, ECHCG” value in test [4] is on record as 5 (5=81-100%); in test [12], 4 (4=61-80%). Also, the “percentage damage caused to the plant, LOLPE” value in test [5] and in test [13] was 4 (4=61-80%) each time. Moreover, the entries for the “percentage damage caused to the plant, SETFA” value in [6] and in test [14] were 5 (5=81-100%) and 4 (4=61-80%), respectively. The “percentage damage caused to the plant, ZEAMX” value in test [7] and in test [15] was 4 (4=61-80%) each time. In addition, the “percentage damage caused to the plant, ABUTH” value in test [8] and in [16] was 3 (3=41-60%) throughout.
With `O=C(O)c1nn(-c2ccc(Cl)cc2)c2cccc(Oc3ccc(F)cc3)c2c1=O` [Compound P11, 1-(4-chlorophenyl)-5-(4-fluorophenoxy)-4-oxo-cinnoline-3-carboxylic acid], the figures for the “percentage damage caused to the plant, SOLNI” value in [1] and in test [9] were 5 (5=81-100%) and 1 (1=10-20%), respectively. Also, the entries for the “percentage damage caused to the plant, AMARE” value in test [2] and in test [10] were 3 (3=41-60%) and 5 (5=81-100%), respectively. In addition, the “percentage damage caused to the plant, IPOHE” value in [3] and in test [11] was 0 (0=0%) each time. Moreover, the “percentage damage caused to the plant, ECHCG” value in test [4] and in test [12] was 0 (0=0%) in each case. The “percentage damage caused to the plant, LOLPE” value in test [5] and in test [13] was 0 (0=0%) each time. Moreover, the “percentage damage caused to the plant, SETFA” value in test [6] and in test [14] was 0 (0=0%) in each case.
